Assay results as given in patent publication US8628961B2, “Small molecule antagonists of phosphatidylinositol-3,4,5-triphosphate (PIP3) and uses thereof” (Tufts University, priority 2010, dated 2014).

What was measured:
Akt PH domain = Akt PH domain (Homo sapiens (Human), UniProt P31749); assay: PH domain translocation assay (GFP fusion, plasma membrane); format: cell-based; details: PDGF stimulation
Description: Cells were transfected with the corresponding GFP-fusion vectors, serum starved overnight, and incubated with 100 μM PITs or PIT-1 is for 2 hr, followed by stimulation with 100 ng/ml PDGF or 250 ng/ml PMA for 5 min. The translocation was analyzed using fluorescent microscope and was quantitated by counting the number of cells with translocated PH domains in five random fields.
To begin characterizing cellular activity of PITs, a PH domain translocation assay was performed, measuring PIP3-induced association of GFP-fused PH domains with the plasma membrane. […] Varnai P et al. (1999) J Biol Chem 274:10983-9. Several PH-domain-containing proteins, which are known to bind PIP3 specifically and efficiently, were examined. […] Oikawa T et al. (2004) Nat Cell Biol 6:420-6.

human cancer cells = assay: Cancer cell migration, transwell migration and wound closure models; format: cell-based; details: model not specified
Description: Two models of cell migration were used, a transwell migration model and a wound closure model. Migration of cancer and endothelial cells was evaluated using 24-transwell Boyden chamber (Costar, Bedford, Mass.) with a polystyrene membrane (6.5 mm diameter, 10 μm thickness, and 8 μm pore size). Cells were suspended in serum-free media and seeded in the upper compartment of each well (2×10^4 cells/well) in the presence or absence of different compounds at the indicated concentrations. The lower compartment contained 600 μl of serum-free culture media supplemented with growth factors. After an 8-hr incubation at 37° C., cells were fixed and stained with 0.1% crystal violet. Non-migrating cells on the upper surface of the filter were removed, and the stained cells that migrated to the lower side were photographed using a phase-contrast microscope (Nikon, Japan) in five random fields. The cells were lysed with 10% acetic acid, and colorimetric determination was made at 595 nm using Wallac Victor 3 plate reader.
Cancer or endothelial cells were seeded into fibronectin-coated 96-well plates (2×10^4 cells/well). After reaching confluence, cell monolayers were scratched with a pipette tip to obtain a “wound”. The media and dislodged cells were aspirated and replaced by fresh serum-free media in the presence of growth factors, with or without compounds at different concentrations. After an 8-hr incubation at 37° C., cells were photographed using a phase-contrast microscope in five random fields. The width of wounded cell monolayers in images was measured and the inhibition rates of migration were calculated as inhibition rate=[1−(compound-treated group/control group)]×100%, and IC50 value was determined using Origin6 software (MicroCal, LLC, Northampton, Mass.).

U87MG cells = assay: Combination with Akt kinase inhibitors in U87MG cells (western blot, ATP assay); format: cell-based, human
Description: U87MG cells were treated with 100 μM PIT-1, or 10 μM Akt inhibitor VIII (Calbiochem) or Akt inhibitor (Calbiochem), or 100 μM PIT-1 together with 10 μM Akt inhibitor VIII or Akt inhibitor, for 12 hr and then phosphorylation events were evaluated by western blot.

[1] = Cell death in combination with inhibitors of mitochondrial respiration and ATP synthase; format: cell-based
Text: Elstrom R L et al. (2004) Cancer Res 64:3892-9.

[2] = tested on: SV40-transformed mouse adult lung fibroblasts; assay: Viability of Akt1-expressing versus Akt1-3 triple knockout fibroblasts; format: cell-based
Text: Shaughnessy J D (2008) Nature 454:172-3; Weinstein I G (2002) Science 297:63-4. Therefore, the possibility that PIT-1 may cause preferential cell death in the cells containing elevated PIP3 levels was examined. […] Li D M et al. (1998) Proc Natl Acad Sci USA 95:15406-11. […] Neshat M S et al. (2001) Proc Natl Acad Sci USA 98:10314-9.

Chain of Akt PH domain (P31749 5-108): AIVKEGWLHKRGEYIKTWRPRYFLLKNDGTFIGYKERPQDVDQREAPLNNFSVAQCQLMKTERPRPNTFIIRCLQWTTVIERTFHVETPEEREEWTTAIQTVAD

## O=c1[nH]c2ccccc2n1C1CCN(Cc2ccc(-c3nc4cc5[nH]cnc5cc4nc3-c3ccccc3)cc2)CC1 [Akt inhibitor VIII]
Akt PH domain
  plasma membrane translocation of Akt PH domain: Neither Akt inhibitor X nor allosteric inhibitor VIII blocked membrane translocation
Human cancer cells
  cancer cell migration: lack thereof
U87MG cells
  combination of Akt inhibitors VIII and X: no additive effect
[1]
  cell death with oligomycin, antimycin A, rotenone: synergized
[2]
  loss of viability in Akt1-expressing versus Akt1-3 triple knockout fibroblasts: comparable
